Values of other authors as cited in patent US12318376B2, “Compositions of a polyorthoester and an aprotic solvent” (Heron Therapeutics, Inc., priority 2013, dated 2025).

Conditions: for Water Miscibility: solvent in water, room temperature (20-25° C.)

Water Miscibility | Water Miscibility (amount in brackets) (printed in brackets under the miscibility class) | SMILES
poorly miscible | – | O=C1CCCN1C1CCCCC1 [N-cyclohexyl-2-pyrrolidone]
water miscible | – | CN1CCCC1=O [N-methyl-2-pyrrolidone (NMP), N-methyl-2-pyrrolidone]
poorly miscible | – | CCCCCCCCCCCCCC(=O)OC(C)C [isopropyl myristate]
water miscible | – | COC(C)=O [methyl acetate]
water miscible | – | CCOC(=O)C(C)O (stereo not drawn) [ethyl lactate]
poorly miscible | – | CCCCCCCC/C=C\CCCCCCCC(=O)OCC [ethyl oleate]
water miscible | – | CCN1CCCC1=O [n-ethyl-2-pyrrolidone]
water miscible | – | O=C1CCCCCO1 [ester-caprolactone]
water miscible | – | C[S+](C)[O-] [dimethyl sulfoxide]
partially miscible | (8.3 g/100 ml) | CCOC(C)=O [ethyl acetate]
water miscible | – | COC(=O)C(C)O (stereo not drawn) [methyl lactate]
poorly miscible | – | O=C(OCc1ccccc1)c1ccccc1 [benzyl benzoate]
water miscible | – | CC1COC(=O)O1 (stereo not drawn) [4-methyl-1,3-diololan-2-one]

SMILES | Water Miscibility | Water Miscibility (amount in brackets) (printed in brackets under the miscibility class)
C1CCOC1 [tetrahydrofuran] | water miscible | –
